Laboratory results as given in US20090247559A1 (Exelixis, Inc., priority 2007, published 2009).
Read-outs that look alike come from different tables or passages of the source.

Tests used:
CDC7 = CDC7 (Homo sapiens, UniProt O00311); experiment: CDC7 inhibition, biochemical chemiluminescence assay (Kinase Glo, IC50 determination)
Experimental: Characterization of CDC7 Inhibition in a Biochemical Chemiluminesence Assay (IC50 Determination):
The IC50 evaluation of compounds against the CDC7 enzyme was performed in a Chemiluminesence assay utilizing a Greiner 384-well white binding plate format. […] Upon addition of 10 μL of CDC-7 (GB) to the designated well plates and subsequent incubation for ten minutes at ambient temperature, 10 μL of ATP mix in Tris Base was added. Following an incubation period of 90 minutes at ambient temperature (24-27° C.), 20 μL of Kinase Glo (Promega) was added to measure kinase activity by quantitating the amount of ATP remaining in solution. The luminescence was measured following a Luciferase Protocol on either EnVision or Victor plate readers.

[1] = target: PIM (PIM-1, PIM-2, and/or PIM-3); experiment: PIM-1, PIM-2 and PIM-3 inhibition, biochemical chemiluminescence assays (Kinase Glo, IC50 determination); settings: Table 1 activity class; PIM refers to PIM-1, PIM-2, and/or PIM-3; read-out: PIM IC50 (Activity B)
CK2 = CK2 (Homo sapiens, UniProt P68400); experiment: CK2 inhibition, biochemical chemiluminescence holoenzyme assay (Kinase Glo, IC50 determination); settings: Table 1 activity class; symbol given only if active; read-out: CK2 IC50 (Activity C)
Summary of the method: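 Holoenzyme CK2 assay; compounds pre-incubated with substrate and enzyme, then reacted 150 min at 24-27° C. Remaining ATP measured as luminescence with Kinase Glo, and IC50 derived from the signal.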

[2] = Table 1 activity class, symbol given only if active, read-out: CDC7 IC50 (Activity A)

Sequence of CK2 (P68400 whole entry): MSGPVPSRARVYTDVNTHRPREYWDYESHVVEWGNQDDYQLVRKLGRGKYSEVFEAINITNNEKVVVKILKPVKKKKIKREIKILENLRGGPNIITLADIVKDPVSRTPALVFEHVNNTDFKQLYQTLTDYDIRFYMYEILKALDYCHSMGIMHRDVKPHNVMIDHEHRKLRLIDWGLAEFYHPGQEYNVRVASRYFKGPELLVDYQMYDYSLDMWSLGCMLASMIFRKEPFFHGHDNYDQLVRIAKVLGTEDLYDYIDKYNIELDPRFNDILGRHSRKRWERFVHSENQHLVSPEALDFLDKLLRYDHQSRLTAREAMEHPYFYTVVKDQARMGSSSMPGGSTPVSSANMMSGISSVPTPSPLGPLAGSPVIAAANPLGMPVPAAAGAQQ
Sequence of CK2 (P67870 whole entry partner): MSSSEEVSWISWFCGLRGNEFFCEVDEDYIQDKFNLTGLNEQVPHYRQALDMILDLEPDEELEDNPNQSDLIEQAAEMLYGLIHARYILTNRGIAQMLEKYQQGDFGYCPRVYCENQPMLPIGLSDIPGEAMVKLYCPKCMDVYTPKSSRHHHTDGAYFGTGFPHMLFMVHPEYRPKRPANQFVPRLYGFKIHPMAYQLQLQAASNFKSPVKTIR
Sequence of CDC7 (O00311 whole entry): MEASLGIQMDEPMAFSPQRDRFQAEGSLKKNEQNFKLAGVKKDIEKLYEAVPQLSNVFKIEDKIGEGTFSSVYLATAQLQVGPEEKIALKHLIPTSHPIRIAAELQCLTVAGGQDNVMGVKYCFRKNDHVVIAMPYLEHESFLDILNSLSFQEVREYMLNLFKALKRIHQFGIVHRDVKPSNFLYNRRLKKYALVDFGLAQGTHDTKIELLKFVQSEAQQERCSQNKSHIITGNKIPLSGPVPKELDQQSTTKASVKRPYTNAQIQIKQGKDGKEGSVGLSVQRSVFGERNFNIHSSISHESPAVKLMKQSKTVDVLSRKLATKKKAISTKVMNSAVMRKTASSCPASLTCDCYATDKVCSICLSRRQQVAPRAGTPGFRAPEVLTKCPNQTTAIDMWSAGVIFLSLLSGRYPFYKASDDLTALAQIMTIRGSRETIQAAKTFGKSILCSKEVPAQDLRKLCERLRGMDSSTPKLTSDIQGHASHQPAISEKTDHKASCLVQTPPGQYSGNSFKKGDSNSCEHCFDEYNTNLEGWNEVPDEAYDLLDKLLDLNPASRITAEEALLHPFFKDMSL
Sequence of CDC7 (Q9UBU7 whole entry partner): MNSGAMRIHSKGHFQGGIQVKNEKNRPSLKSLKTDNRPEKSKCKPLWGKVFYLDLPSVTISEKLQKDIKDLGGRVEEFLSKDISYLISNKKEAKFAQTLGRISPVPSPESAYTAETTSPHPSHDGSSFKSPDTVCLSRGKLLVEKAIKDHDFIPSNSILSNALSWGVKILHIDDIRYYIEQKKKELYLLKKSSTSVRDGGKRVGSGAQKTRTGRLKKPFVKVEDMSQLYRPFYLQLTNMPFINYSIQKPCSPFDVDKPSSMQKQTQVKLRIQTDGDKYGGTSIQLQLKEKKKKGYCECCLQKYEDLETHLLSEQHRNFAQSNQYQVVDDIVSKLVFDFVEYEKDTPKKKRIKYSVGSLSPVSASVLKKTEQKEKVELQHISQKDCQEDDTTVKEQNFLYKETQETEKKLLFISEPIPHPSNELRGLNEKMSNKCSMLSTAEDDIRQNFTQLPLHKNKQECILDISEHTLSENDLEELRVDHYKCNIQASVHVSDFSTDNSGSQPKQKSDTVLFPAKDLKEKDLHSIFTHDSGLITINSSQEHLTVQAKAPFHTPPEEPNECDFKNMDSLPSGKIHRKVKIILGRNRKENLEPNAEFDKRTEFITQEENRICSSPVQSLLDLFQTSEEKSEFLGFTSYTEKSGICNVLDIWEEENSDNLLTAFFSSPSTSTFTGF

SMILES	IC50 (CDC7; [2]) [µM]	IC50 (CDC7; compounds in Table 1, read-out: CDC7 IC50 value) [µM]	IC50 [1] [µM]	IC50 (CK2) [µM]
O=c1[nH]c(-c2ccccc2Cl)nc2c1oc1ccc(Br)cc12 [Compound 30, 8-Bromo-2-(2-chlorophenyl)[1]benzofuro[3,2-d]pyrimidin-4(3H)-one]	< 10			
COc1ccc2oc3c(=O)[nH]c(-c4ccccc4Cl)nc3c2c1 [Compound 32, 2-(2-Chlorophenyl)-8-(methyloxy)[1]benzofuro[3,2-d]pyrimidin-4(3H)-one]	< 10			
CN1C[C@@H]2C[C@H]1CN2Cc1nc2c(oc3ccc(Br)cc32)c(=O)[nH]1 [Compound 142, 8-bromo-2-{[(1S,4S)-5-methyl-2,5-diazabicyclo[2.2.1]hept-2-yl]methyl}[1]benzofuro[3,2-d]pyrimidin-4(3H)-one]	< 10			
O=c1[nH]c(CN2CC(O)C2)nc2c1oc1ccc(Br)cc12 [Compound 183, 8-bromo-2-[(3-hydroxyazetidin-1-yl)methyl][1]benzofuro[3,2-d]pyrimidin-4(3H)-one]	< 10	< 0.1		
CN1C[C@@H]2CC[C@H]1CN2Cc1nc2c(oc3ccc(Br)cc32)c(=O)[nH]1 [Compound 330, 8-bromo-2-{[(1S,4S)-5-methyl-2,5-diazabicyclo[2.2.2]oct-2-yl]methyl}[1]benzofuro[3,2-d]pyrimidin-4(3H)-one]	< 10			
CCCCNc1ccc2oc3c(=O)[nH]c(CN4CC[C@H](O)C4)nc3c2c1 [Compound 446, 8-(butylamino)-2-{[(3S)-3-hydroxypyrrolidin-1-yl]methyl}[1]benzofuro[3,2-d]pyrimidin-4(3H)-one]			< 10	< 10
O=c1[nH]c(CN2CC[C@H](O)C2)nc2c1oc1ccc(C#CCO)cc12 [Compound 454, 8-(3-hydroxyprop-1-yn-1-yl)-2-{[(3S)-3-hydroxypyrrolidin-1-yl]methyl}[1]benzofuro[3,2-d]pyrimidin-4(3H)-one]			< 10	< 10
O=c1[nH]c(CN2CC[C@H](O)C2)nc2c1oc1ccc(CCCO)cc12 [Compound 455, 8-(3-hydroxypropyl)-2-{[(3S)-3-hydroxypyrrolidin-1-yl]methyl}[1]benzofuro[3,2-d]pyrimidin-4(3H)-one]			< 10	< 10
O=c1[nH]c(CN2CC[C@H](O)C2)nc2c1oc1ccc(C#CCCCCO)cc12 [Compound 456, 8-(6-hydroxyhex-1-yn-1-yl)-2-{[(3S)-3-hydroxypyrrolidin-1-yl]methyl}[1]benzofuro[3,2-d]pyrimidin-4(3H)-one]			< 10	< 10
O=c1[nH]c(CN2CC[C@H](O)C2)nc2c1oc1ccc(CCCCCCO)cc12 [Compound 457, 8-(6-hydroxyhexyl)-2-{[(3S)-3-hydroxypyrrolidin-1-yl]methyl}[1]benzofuro[3,2-d]pyrimidin-4(3H)-one]			< 10	< 10

Continued, values first:

IC50 (CDC7; [2]) [µM]	IC50 (CDC7; compounds in Table 1, read-out: CDC7 IC50 value) [µM]	IC50 [1] [µM]	IC50 (CK2) [µM]	SMILES
		< 10	< 10	Cc1ccccc1CNc1ccc2oc3c(=O)[nH]c(CN4CC[C@H](O)C4)nc3c2c1 [Compound 461, 2-{[(3S)-3-hydroxypyrrolidin-1-yl]methyl}-8-{[(2-methylphenyl)methyl]amino}[1]benzofuro[3,2-d]pyrimidin-4(3H)-one]
		< 10	< 10	O=c1[nH]c(CN2CC[C@H](O)C2)nc2c1oc1ccc(NCc3ccccc3F)cc12 [Compound 462]
		< 10	< 10	O=c1[nH]c(CN2CC[C@H](O)C2)nc2c1oc1ccc(NCc3ccccn3)cc12 [Compound 463, 2-{[(3S)-3-hydroxypyrrolidin-1-yl]methyl}-8-[(pyridin-2-ylmethyl)amino][1]benzofuro[3,2-d]pyrimidin-4(3H)-one]
		< 10	< 10	O=c1[nH]c(CN2CC[C@H](O)C2)nc2c1oc1ccc(NCc3cccc(C(F)(F)F)c3)cc12 [Compound 464, 2-{[(3S)-3-hydroxypyrrolidin-1-yl]methyl}-8-({[3-(trifluoromethyl)phenyl]methyl}amino)[1]benzofuro[3,2-d]pyrimidin-4(3H)-one]
		< 10	< 10	O=c1[nH]c(CN2CC[C@H](O)C2)nc2c1oc1ccc(NCc3ccc(F)cc3F)cc12 [Compound 465, 8-{[(2,4-difluorophenyl)methyl]amino}-2-{[(3S)-3-hydroxypyrrolidin-1-yl]methyl}[1]benzofuro[3,2-d]pyrimidin-4(3H)-one]
		< 10	< 10	COc1ccccc1CNc1ccc2oc3c(=O)[nH]c(CN4CC[C@H](O)C4)nc3c2c1 [Compound 466, 2-{[(3S)-3-hydroxypyrrolidin-1-yl]methyl}-8-({[2-(methyloxy)phenyl]methyl}amino)[1]benzofuro[3,2-d]pyrimidin-4(3H)-one]
		< 10	< 10	COc1cccc(CNc2ccc3oc4c(=O)[nH]c(CN5CC[C@H](O)C5)nc4c3c2)c1 [Compound 467, 2-{[(3S)-3-hydroxypyrrolidin-1-yl]methyl}-8-({[3-(methyloxy)phenyl]methyl}amino)[1]benzofuro[3,2-d]pyrimidin-4(3H)-one]
		< 10	< 10	COc1ccc(CNc2ccc3oc4c(=O)[nH]c(CN5CC[C@H](O)C5)nc4c3c2)cc1 [Compound 468, 2-{[(3S)-3-hydroxypyrrolidin-1-yl]methyl}-8-({[4-(methyloxy)phenyl]methyl}amino)[1]benzofuro[3,2-d]pyrimidin-4(3H)-one]
		< 10	< 10	O=c1[nH]c(CN2CC[C@H](O)C2)nc2c1oc1ccc(NCCc3cccc(F)c3)cc12 [Compound 472, 8-{[2-(3-fluorophenyl)ethyl]amino}-2-{[(3S)-3-hydroxypyrrolidin-1-yl]methyl}[1]benzofuro[3,2-d]pyrimidin-4(3H)-one]
		< 10	< 10	O=c1[nH]c(CN2CC[C@H](O)C2)nc2c1oc1ccc(NCCc3cccc(C(F)(F)F)c3)cc12 [Compound 473, 2-{[(3S)-3-hydroxypyrrolidin-1-yl]methyl}-8-({2-[3-(trifluoromethyl)phenyl]ethyl}amino)[1]benzofuro[3,2-d]pyrimidin-4(3H)-one]
		< 10	< 10	COc1ccc(CCNc2ccc3oc4c(=O)[nH]c(CN5CC[C@H](O)C5)nc4c3c2)cc1OC [Compound 474, 8-({2-[3,4-bis(methyloxy)phenyl]ethyl}amino)-2-{[(3S)-3-hydroxypyrrolidin-1-yl]methyl}[1]benzofuro[3,2-d]pyrimidin-4(3H)-one]
		< 10	< 10	O=c1[nH]c(CN2CC[C@H](O)C2)nc2c1oc1ccc(OCc3ccccc3)cc12 [Compound 475, 2-{[(3S)-3-hydroxypyrrolidin-1-yl]methyl}-8-[(phenylmethyl)oxy][1]benzofuro[3,2-d]pyrimidin-4(3H)-one]
		< 10	< 10	CC(C)COc1ccc2oc3c(=O)[nH]c(CN4CC[C@H](O)C4)nc3c2c1 [Compound 477, 2-{[(3S)-3-hydroxypyrrolidin-1-yl]methyl}-8-[(2-methylpropyl)oxy][1]benzofuro[3,2-d]pyrimidin-4(3H)-one]
		< 10	< 10	CCOC(=O)Cc1ccc2oc3c(=O)[nH]c(CN4CC[C@H](O)C4)nc3c2c1 [Compound 491, ethyl (2-{[(3S)-3-hydroxypyrrolidin-1-yl]methyl}-4-oxo-3,4-dihydro[1]benzofuro[3,2-d]pyrimidin-8-yl)acetate]
